{"source": "paper PMC6218659", "about": "“Structures of DPAGT1 Explain Glycosylation Disease Mechanisms and Advance TB Antibiotic Design” (Cell, 2018)", "experiment_in_all_cases": "Thermostability assay (label free differential scanning fluorimetry)", "type_in_all_cases": "binding, H. sapiens", "details_in_all_cases": "50 μM compound", "key": {"[1]": {"target": "T1, DPAGT1 WT (Homo sapiens, UniProt Q9H3H5)", "T1 construct": "H. sapiens DPAGT1 (1-408, N-terminal 6 x HIS tag, TEV cleavage site); 6xHis purification tag with TEV site (N, cleaved yes); made in house; host or cells: Spodoptera frugiperda Sf9 insect cells (baculovirus)", "T1 sequence (Q9H3H5 1-408)": "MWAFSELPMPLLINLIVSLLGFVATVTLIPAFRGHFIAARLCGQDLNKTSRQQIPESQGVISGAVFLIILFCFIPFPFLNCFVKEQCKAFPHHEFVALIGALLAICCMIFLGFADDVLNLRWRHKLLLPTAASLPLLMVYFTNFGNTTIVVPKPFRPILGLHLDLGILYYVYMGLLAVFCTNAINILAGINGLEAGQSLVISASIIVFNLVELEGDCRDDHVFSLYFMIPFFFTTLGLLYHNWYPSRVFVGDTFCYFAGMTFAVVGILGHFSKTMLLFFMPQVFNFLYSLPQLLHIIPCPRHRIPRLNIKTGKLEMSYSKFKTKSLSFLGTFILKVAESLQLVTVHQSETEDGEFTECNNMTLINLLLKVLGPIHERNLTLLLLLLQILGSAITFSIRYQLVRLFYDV", "procedure": "(§1) Samples with a volume of 40 μl were prepared containing 0.5 mg/ml protein and 50 μM compound or 5% DMSO in GFB. A glass capillary was dipped into each sample, with the capillary held horizontally to ensure that the capillary was full of the sample. The capillaries were placed on the capillary holder on the Nanotemper Prometheus. Technical triplicates of each sample were prepared, and each experiment was conducted with biological triplicates of each protein. PR.ThermControl software was used to run the experiment and analyse the data. A melting curve from 20 °C – 95 °C at 5 °C/min was performed. The minimum of the first derivative of the 330/350nm ratio was used to determine the Tm1/2."}, "[2]": {"target": "T2, DPAGT1 Tyr170Cys (Homo sapiens, UniProt Q9H3H5, Y170C)", "T2 construct": "combined with the LIC-adapted primers to amplify the complete DPAGT1 gene, including the desired mutations; 6xHis purification tag with TEV site (N, cleaved yes); made in house; host or cells: Spodoptera frugiperda Sf9 insect cells (baculovirus)", "T2 sequence (Q9H3H5 1-408 Y170C)": "T1 sequence (Q9H3H5 1-408) with Y170C", "procedure": "as §1"}, "[3]": {"target": "T3, DPAGT1 Leu168Pro (Homo sapiens, UniProt Q9H3H5, L168P)", "T3 construct": "combined with the LIC-adapted primers to amplify the complete DPAGT1 gene, including the desired mutations; 6xHis purification tag with TEV site (N, cleaved yes); made in house; host or cells: Spodoptera frugiperda Sf9 insect cells (baculovirus)", "T3 sequence (Q9H3H5 1-408 L168P)": "T1 sequence (Q9H3H5 1-408) with L168P", "procedure": "as §1"}, "[4]": {"target": "T4, DPAGT1 Val264Gly (Homo sapiens, UniProt Q9H3H5, V264G)", "T4 construct": "H. sapiens DPAGT1 (1-408, Val264Gly, N-terminal 6 x HIS tag, TEV cleavage site); 6xHis purification tag with TEV site (N, cleaved yes); made in house; host or cells: Spodoptera frugiperda Sf9 insect cells (baculovirus)", "T4 sequence (Q9H3H5 1-408 V264G)": "T1 sequence (Q9H3H5 1-408) with V264G", "procedure": "as §1"}, "[5]": {"target": "T5, DPAGT1 Arg301Cys (Homo sapiens, UniProt Q9H3H5, R301C)", "T5 construct": "combined with the LIC-adapted primers to amplify the complete DPAGT1 gene, including the desired mutations; 6xHis purification tag with TEV site (N, cleaved yes); made in house; host or cells: Spodoptera frugiperda Sf9 insect cells (baculovirus)", "T5 sequence (Q9H3H5 1-408 R301C)": "T1 sequence (Q9H3H5 1-408) with R301C", "procedure": "as §1"}}, "note": "Changes are numbered by the printed parent chain. Counter-ions that a name gives are not always drawn.", "data": [{"smiles": "N[C@H]1[C@H](O[C@H]2O[C@H](CO)[C@@H](O)[C@H](O)[C@H]2N)O[C@H](C[C@@H](O)[C@H]2O[C@@H](n3ccc(=O)[nH]c3=O)[C@H](O)[C@@H]2O)[C@H](O)[C@@H]1O", "note": "[TUN, α-D-glucosamine-(1”-11')-tunicamyl uracil dihydrochloride]", "values": [{"measurement": "Thermostability (Tm1/2) with added compound", "setting": "[1]", "value": "83.0±0.4", "unit": "°C"}, {"measurement": "Thermostability (Tm1/2) with added compound", "setting": "[2]", "value": "83.1±0.8", "unit": "°C"}, {"measurement": "Thermostability (Tm1/2) with added compound", "setting": "[3]", "value": "84.0±0.2", "unit": "°C"}, {"measurement": "Thermostability (Tm1/2) with added compound", "setting": "[4]", "value": "82.6±0.1", "unit": "°C"}, {"measurement": "Thermostability (Tm1/2) with added compound", "setting": "[5]", "value": "80.9±0.5", "unit": "°C"}]}]}
